Assay results published in the NIST ThermoML archive (doi:10.1021/acs.jced.8b00793).
± gives the expanded uncertainty stated by the source.

Settings: 100 kPa, Liquid; for viscosity: Concentric cylinders viscometry; for mass density: Vibrating tube method

CCO [ethanol]
Settings | mass density [kg/m3] | viscosity [mPa·s]
293.15 K | 790.7 ± 3 | 1.23 ± 0.05
303.15 K | 782.2 ± 3 | 1.02 ± 0.04
313.15 K | 773.4 ± 3 | 0.85 ± 0.04
323.15 K | 760.1 ± 3 | 0.71 ± 0.03
